Counter-ions that a name gives are not always drawn. Like-named read-outs stand apart in the source and are kept apart here.
Target: T1, human A3AR (Homo sapiens, UniProt P0DMS8)
T1 construct: expressed in transfected cells
T1 sequence (P0DMS8 1-318): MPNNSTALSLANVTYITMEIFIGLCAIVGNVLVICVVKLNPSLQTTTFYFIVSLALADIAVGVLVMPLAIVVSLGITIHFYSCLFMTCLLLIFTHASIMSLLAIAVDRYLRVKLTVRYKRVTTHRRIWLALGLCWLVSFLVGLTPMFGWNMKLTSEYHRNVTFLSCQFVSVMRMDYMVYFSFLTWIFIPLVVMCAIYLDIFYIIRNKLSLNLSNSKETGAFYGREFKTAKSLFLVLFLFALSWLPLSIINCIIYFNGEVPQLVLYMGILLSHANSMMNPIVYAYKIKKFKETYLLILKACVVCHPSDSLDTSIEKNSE
Assay: LOPAC library primary screen: single concentration (10 μM) inhibition of 25 nM CA200645 binding, PHERAstar FS
Settings: for % Total CA200645 binding: % of 25 nM CA200645 binding in the presence of 10 μM compound, LOPAC full screen, A3AR CHO cells

[1] = % of control wells (1% DMSO and 25 nM CA200645), compounds at 10 µM, whole live cells expressing the A3AR, mean ± SD, three experiments in duplicate
[2] = compounds tested at 10 µM, % of control wells (1% DMSO and 25 nM CA200645), whole live cells expressing the A3AR, mean ± SD, three experiments in duplicate

## CCCCCCCC/C=C\CCCCCCCC(=O)NCCc1ccc(O)c(O)c1 [N-Oleoyldopamine]
  % 25 nM CA200645 binding: 53.5 ± 8.3%

## O=C(O)c1cccnc1Nc1cccc(C(F)(F)F)c1 [Niflumic acid]
  % 25 nM CA200645 binding: 113.3 ± 19.3%

## CC(=O)SCC[N+](C)(C)C.[Cl-] [Acetylthiocholine chloride]
  % 25 nM CA200645 binding: 95.7 ± 4.8%

## Cl.O=C(O)Cc1c[nH]cn1 [Imidazole-4-acetic acid hydrochloride]
  % 25 nM CA200645 binding: 99.3 ± 14.9%

## CCCN1CCc2cccc3c2[C@H]1Cc1ccc(O)c(O)c1-3.Cl [R(-)-Propylnorapomorphine hydrochloride]
  % 25 nM CA200645 binding: 96.1 ± 7.1%

## Fc1ccc([C@@H]2CCNC[C@H]2COc2ccc3c(c2)OCO3)cc1 [Paroxetine hydrochloride hemihydrate]
  % 25 nM CA200645 binding: 97.2 ± 4.3%

## Cc1nc2c([nH]1)c(=O)n(C)c(=O)n2Cc1ccco1 [Furafylline]
[1]
  % 25 nM CA200645 binding: 49.5± 5.8%

## O=[N+]([O-])c1cccc2cn[nH]c12 [7-Nitroindazole]
  % 25 nM CA200645 binding: 126.0 ± 15.1%

## CC(=O)C(C)=O [2,3-Butanedione]
  % 25 nM CA200645 binding: 101.3 ± 15.0%

## C[C@H](Cc1ccccc1)Nc1ncnc2c1ncn2[C@@H]1O[C@H](CO)[C@@H](O)[C@H]1O [R-PIA, reference compound]
  hit in LOPAC primary screen (inhibited the binding of CA200645 by >40%): not identified as hits

## CC[C@H](CO)Nc1nc(NCc2ccccc2)c2ncn(C(C)C)c2n1 [Roscovitine]
  % 25 nM CA200645 binding: 45.3 ± 8.6%

## CC1(C)CCC=[N+]1[O-] [5,5-Dimethyl-1-pyrroline-N-oxide]
  % 25 nM CA200645 binding: 106.0 ± 5.3%

## O=C(O)C(O)C(O)C(=O)O.c1cnc2cc3c(cc2n1)[C@@H]1CNC[C@H]3C1 [Varenicline tartrate]
  % 25 nM CA200645 binding: 90.5 ± 2.6%

## C=CCc1cccc(/C=N/NC(=O)CN2CCN(Cc3ccccc3)CC2)c1O [PAC-1]
  % 25 nM CA200645 binding: 105.3 ± 4.5%

## CN(C)CCOC(=O)COc1ccc(Cl)cc1 [Centrophenoxine hydrochloride]
  % 25 nM CA200645 binding: 90.4 ± 28.8%

## Oc1cc(O)cc(/C=C/c2ccc(O)c(O)c2)c1 [Piceatannol]
  % 25 nM CA200645 binding: 79.1 ± 22.1%

## COC(=O)[C@@H](N)Cc1ccc(O)c(O)c1.Cl
  % 25 nM CA200645 binding: 98.6 ± 13.3%

## CC(C)NCC(O)COc1cccc2ccccc12.Cl (racemic) [(±)-Propranolol hydrochloride]
  % 25 nM CA200645 binding: 106.0 ± 10.5%

## CC1=C(/C=C/C(C)=C/C=C/C(C)=C/C=C/C=C(C)/C=C/C=C(C)/C=C/C2=C(C)C(=O)[C@@H](O)CC2(C)C)C(C)(C)C[C@H](O)C1=O [Astaxanthin]
  % 25 nM CA200645 binding: 96.8 ± 4.6%

## Nc1ccc(CCNc2ncnc3c2ncn3[C@@H]2O[C@H](CO)[C@@H](O)[C@H]2O)cc1 [APNEA, reference compound]
  % Total CA200645 binding: 41.0 ± 7.2%

## COc1ccc(/C=C/C(=O)Nc2ccccc2C(=O)O)cc1OC [Tranilast]
  % 25 nM CA200645 binding: 95.7 ± 1.4%

## C#CCOC(=O)C1=CCCN(C)C1 [Arecaidine propargyl ester hydrobromide]
  % 25 nM CA200645 binding: 96.0 ± 12.2%

## C[C@H](CS)C(=O)N1CCC[C@H]1C(=O)O [Captopril]
  % 25 nM CA200645 binding: 97.2 ± 6.3%

## CCCCC#Cc1nc(NC)c2ncn([C@@H]3O[C@H](CO)[C@@H](O)[C@H]3O)c2n1 [HEMADO, reference compound]
  % 25 nM CA200645 binding: 40.1 ± 10.4%
  % Total CA200645 binding: 40.1 ± 10.5%

## COc1cc(CC(=O)O)ccc1O [4-Hydroxy-3-methoxyphenylacetic acid]
  % 25 nM CA200645 binding: 94.9 ± 9.6%

## N[C@H]1CON=C1O [L-Cycloserine]
  % 25 nM CA200645 binding: 98.0 ± 1.4%

## O=C(O)[C@H]1CCCN[C@H]1C(=O)O (racemic) [(±)-cis-Piperidine-2,3-dicarboxylic acid]
  % 25 nM CA200645 binding: 99.4 ± 1.9%

## N[C@@H]1C[C@H]1c1ccccc1 [Tranylcypromine hydrochloride]
  % 25 nM CA200645 binding: 100.1 ± 11.2%

## COc1ccccc1OCC(O)CN1CCN(CC(=O)Nc2c(C)cccc2C)CC1 (stereo not shown) [Ranolazine dihydrochloride]
  % 25 nM CA200645 binding: 102.3 ± 13.7%

## NC(=O)c1cn(Cc2c(F)cccc2F)nn1 [Rufinamide]
  % 25 nM CA200645 binding: 100.9 ± 12.8%

## COc1ccc(CNC(=O)/C=C/c2ccc3[nH]cc(CCN(C)C)c3c2)cc1 [GR 46611]
  % 25 nM CA200645 binding: 100.9 ± 13.0%

## O=C(O)Cc1ccc(O)c(O)c1 [3,4-Dihydroxyphenylacetic acid]
  % 25 nM CA200645 binding: 97.0 ± 9.9%

## C/C(=C\c1ccc(C(=O)O)cc1)c1ccc2c(c1)C(C)(C)CCC2(C)C [TTNPB]
  % 25 nM CA200645 binding: 92.9 ± 11.5%

## C[N+](C)(C)CCCCCC[N+](C)(C)C [Hexamethonium bromide]
  % 25 nM CA200645 binding: 99.4 ± 1.1%

## C[C@@H]1C(=O)NC2=Nc3cccc(Cl)c3CN21 [Quazinone]
[2]
  % 25 nM CA200645 binding: 93.4 ± 5.4%

## CCOC(=O)C(C)Oc1cccc2c(=O)n(CC(=O)Nc3ccc4c(c3)OCCO4)ccc12 (stereo not shown) [SID7969543]
  % 25 nM CA200645 binding: 94.8 ± 24.3%

## Cl.NCCNS(=O)(=O)c1cccc2c(Cl)cccc12 [A3 hydrochloride]
  % 25 nM CA200645 binding: 95.5 ± 8.6%

## CCN1/C(=C/C(C)=O)Sc2ccc(OC)cc21 [TG003]
  % 25 nM CA200645 binding: 77.3 ± 17.0%

## O=c1cc(-c2ccccc2F)[nH]c2cc3c(cc12)OCO3 [CHM-1 hydrate]
  % 25 nM CA200645 binding: 97.3 ± 5.3%

## CCCC1O[C@@H]2C[C@H]3[C@@H]4CCC5=CC(=O)C=C[C@]5(C)[C@H]4[C@@H](O)C[C@]3(C)[C@]2(C(=O)CO)O1 (stereo partly shown) [Budesonide]
  % 25 nM CA200645 binding: 92.7 ± 8.6%

## O=c1ccn([C@@H]2O[C@H](COP(=O)([O-])OP(=O)([O-])O)[C@@H](O)[C@H]2O)c(=O)[nH]1.[Na+].[Na+] [Uridine 5'-diphosphate sodium]
  % 25 nM CA200645 binding: 100.6 ± 5.7%

## N=c1ccn2c(n1)O[C@H]1[C@H](O)[C@@H](CO)O[C@H]12 [Ancitabine hydrochloride]
  % 25 nM CA200645 binding: 106.9 ± 5.2%

## N#C/C(=C\c1ccc(O)c(O)c1)C(=O)Nc1ccccc1 [Tyrphostin AG 494]
  % 25 nM CA200645 binding: 91.5 ± 7.4%

## S=C(Nc1ccccc1)Nc1nccs1 [1-Phenyl-3-(2-thiazolyl)-2-thiourea]
  % 25 nM CA200645 binding: 94.0 ± 11.6%

## C[N+](C)(C)CCCCCCCCCC[N+](C)(C)C.[Br-].[Br-] [Decamethonium dibromide]
  % 25 nM CA200645 binding: 106.4 ± 21.3%

## O=C(O)CP(=O)(O)O [Phosphonoacetic acid]
  % 25 nM CA200645 binding: 103.4 ± 12.3%

## CC1(C)CCC2=C(O1)c1ccccc1C(=O)C2=O [beta-Lapachone]
  % 25 nM CA200645 binding: 93.1 ± 5.0%

## NC(=O)c1ccc2[nH]ccc2c1 [SD-169]
  % 25 nM CA200645 binding: 96.7 ± 5.5%

## CN1CC[C@@]2(C)c3cc(OC(=O)Nc4ccccc4)ccc3N(C)[C@@H]12 [Phenserine]
  % 25 nM CA200645 binding: 81.1 ± 29.6%

## O=C(N[C@@H](Cc1ccccc1)C(=O)CCl)OCc1ccccc1 [Z-L-Phe chloromethyl ketone]
  % 25 nM CA200645 binding: 100.8 ± 7.1%

## OC[C@H]1O[C@@H](n2cnc3c(N[C@H]4CCC[C@@H]4O)ncnc32)[C@H](O)[C@@H]1O [GR 79236X]
  % 25 nM CA200645 binding: 78.0 ± 19.3%

## CO[C@@]1(NC(=O)CSCC#N)C(=O)N2C(C(=O)O)=C(CSc3nnnn3C)CS[C@@H]21 [Cefmetazole sodium]
  % 25 nM CA200645 binding: 84.6 ± 22.3%

## O=C(Nc1ccc([N+](=O)[O-])cc1Cl)c1cc(Cl)ccc1O [Niclosamide]
  % 25 nM CA200645 binding: 101.6 ± 22.5%

## Cc1ccccc1/C=C/C1=NCCN1 [Metrazoline oxalate]
[1]
  % 25 nM CA200645 binding: 97.1 ± 2.0%

## NC(CCCP(=O)(O)O)C(=O)O (racemic) [(±)-2-Amino-5-phosphonopentanoic acid]
[2]
  % 25 nM CA200645 binding: 90.8 ± 6.2%

## NC(N)=NOCC[C@H](N)C(=O)O [L-Canavanine]
  % 25 nM CA200645 binding: 101.1 ± 4.7%

## COc1cc2nc(N(C)CCCNC(=O)C3CCCO3)nc(N)c2cc1OC (stereo not shown) [Alfuzosin hydrochloride]
  % 25 nM CA200645 binding: 102.3 ± 4.9%

## NCCCS(=O)(=O)O.[Na] [3-Amino-1-propanesulfonic acid sodium]
  % 25 nM CA200645 binding: 96.5 ± 4.6%

## Cl.Cl.Fc1ccc(C(OCCN2CCN(CCCc3ccccc3)CC2)c2ccc(F)cc2)cc1 [GBR-12909 dihydrochloride]
  % 25 nM CA200645 binding: 95.7 ± 6.3%

## Br.COc1ccccc1N1CCN(CCCCN2C(=O)c3ccccc3C2=O)CC1 [NAN-190 hydrobromide]
  % 25 nM CA200645 binding: 91.1 ± 29.0%

## O=C(O)/C=C\C(=O)O.c1cnc(N2CCN(Cc3ccc4c(c3)OCO4)CC2)nc1 [Piribedil maleate]
  % 25 nM CA200645 binding: 97.8 ± 1.7%

## CC#CCOC(=O)c1c(C)nc2sc3c(c2c1N)CCC(O)C3 (stereo not shown) [SB 205384]
  % 25 nM CA200645 binding: 95.1 ± 6.2%

## N=C(N)c1ccc(OCCCCCOc2ccc(C(=N)N)cc2)cc1 [Pentamidine isethionate]
  % 25 nM CA200645 binding: 100.3 ± 6.3%

## CCNC(=O)N1CCN(CCCC(c2ccc(F)cc2)c2ccc(F)cc2)CC1 [Amperozide hydrochloride]
[2]
  % 25 nM CA200645 binding: 92.9 ± 0.6%

## Cn1c(=O)c2c(ncn2C)n(C)c1=O [caffeine, reference compound]
  % 25 nM CA200645 binding: 95.8 ± 4.7%

## O=C(O)/C(=C/c1c(C(=O)O)[nH]c2cc(Cl)cc(Cl)c12)c1ccccc1 [MDL 105,519]
  % 25 nM CA200645 binding: 101.6 ± 19.9%

## Cl.NC1(C(=O)O)CCCCC1
  % 25 nM CA200645 binding: 108.3 ± 1.1%

## CN(Cc1cnc2nc(N)nc(N)c2n1)c1ccc(C(=O)N[C@@H](CCC(=O)O)C(=O)O)cc1.O [Methotrexate hydrate]
  % 25 nM CA200645 binding: 100.1 ± 8.9%

## N[C@@H](COP(=O)(O)O)C(=O)O [O-Phospho-L-serine]
  % 25 nM CA200645 binding: 93.4 ± 14.4%

From paper PMC5733478, “A Non-imaging High Throughput Approach to Chemical Library Screening at the Unmodified Adenosine-A3 Receptor in Living Cells” (Frontiers in Pharmacology, 2017)
